Consider twelve compounds from patent US11613533B2, “Compounds useful for inhibiting RET kinase” (Eli Lilly and Company, priority 2020, dated 2023).

Assay [1] has as its target T1, G810S mutant RET kinase (N-Terminal GST-tagged recombinant human G810S, aa-658-end) (Homo sapiens, UniProt P07949, G810S).
T1 construct: recombinant human G810S (aa-658-end); GST (N); made in house; host or cells: insect cells
T1 sequence (P07949 658-1114 G810S limits assumed): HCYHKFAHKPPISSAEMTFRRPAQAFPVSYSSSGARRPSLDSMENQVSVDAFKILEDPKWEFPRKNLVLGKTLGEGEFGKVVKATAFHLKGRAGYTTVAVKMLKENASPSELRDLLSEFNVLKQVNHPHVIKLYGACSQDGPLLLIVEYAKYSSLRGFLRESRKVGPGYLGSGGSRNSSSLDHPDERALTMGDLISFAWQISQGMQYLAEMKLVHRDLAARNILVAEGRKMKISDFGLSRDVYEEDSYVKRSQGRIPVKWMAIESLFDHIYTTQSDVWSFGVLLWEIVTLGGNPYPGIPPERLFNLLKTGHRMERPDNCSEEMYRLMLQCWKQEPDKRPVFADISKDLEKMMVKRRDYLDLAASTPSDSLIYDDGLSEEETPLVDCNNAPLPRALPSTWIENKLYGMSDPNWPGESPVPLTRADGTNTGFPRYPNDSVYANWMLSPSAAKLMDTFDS
As to the kind of experiment: RET enzyme assay (HTRF KinEASE TK), G810S. The note with it: 1 mM ATP, 60 min incubation at 22° C. It is filed as biochemical. As for the experimental part:
Assay A: RET Enzyme Assay
Compounds of formulas I, II, or III are screened for their ability to inhibit wildtype, V804M, and G810S mutant RET kinase using CisBio's HTRF® KinEASE™TK assay technology. N-terminal GST tagged recombinant human RET cytoplasmic domain (aa 658-end) from Eurofins ([…]; Catalog No. 14-570M) or N-terminal GST tagged recombinant human V804M mutant RET cytoplasmic domain (aa 658-end) from Millipore (1.25 nM enzyme; Catalog No. 14-760) or N-Terminal GST-tagged recombinant human G810S (aa-658-end) (1.25 nM Enzyme; produced in insect cells) is incubated with 62.5 nM TK-substrate biotin (CisBio, part of Catalog No. 62TK0PEC) and 1 mM ATP along with test compound (0.4% final DMSO in the assay) in a 1× Cisbio enzymatic buffer consisting of […], 5 mM MgCl2, 0.04% BSA and 0.05% Tween20 in a volume of 10 μL. Compounds are typically prepared in a threefold serial dilution in DMSO and added to the assay to give the appropriate final concentration. After a 40-60 min (40 min for V804M, 60 min for WT and G810S) incubation at 22° C., the reaction is quenched by adding quench solution (10 μL) containing 7.8 nM Streptavidine-XL665 and 0.5×TK-ab-Cryptate in HTRF detection buffer (all from CisBio, part of Cat. No. 62TK0PEC). After a 60-80 min incubation (60 minutes for WT, 80 minutes for V804M and G810S) at 22° C., the extent of reaction is determined using a PHERastar plate reader via HTRF detection at excitation/emission 337/665 nm. Percent of inhibition is calculated with 0% inhibition referring to control conditions containing no compound (0.4% DMSO only) and 100% inhibition represented by conditions containing no enzyme. The % inhibition values are fit to a 4 parameter logistic curve, and the determined IC50 value is defined as the estimated concentration of inhibitor at the inflexion point of the fitted curve.
A general note: In TR-FRET formats the signal depends on donor and acceptor labels being close together.

Assay [2] has as its target T2, KIF5B-RET WT in HEK293 cells (Homo sapiens, UniProt P07949).
T2 construct: expressed in transfected cells; host or cells: HEK293; the other entry of the earlier key: KIF5B (P33176, Kinesin-1 heavy chain)
T2 sequence (P07949 713-1063 limits assumed): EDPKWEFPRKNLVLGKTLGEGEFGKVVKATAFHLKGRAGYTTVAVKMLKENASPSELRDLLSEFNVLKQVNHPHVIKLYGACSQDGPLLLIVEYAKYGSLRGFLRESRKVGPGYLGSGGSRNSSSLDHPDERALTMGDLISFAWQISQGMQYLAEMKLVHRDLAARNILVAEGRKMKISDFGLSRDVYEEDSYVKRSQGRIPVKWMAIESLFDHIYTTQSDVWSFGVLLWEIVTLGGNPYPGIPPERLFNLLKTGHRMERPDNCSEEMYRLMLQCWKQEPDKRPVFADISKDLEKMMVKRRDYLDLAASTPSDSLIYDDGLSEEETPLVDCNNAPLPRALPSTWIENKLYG
As to the kind of experiment: RET cell assay (In-Cell Western, phospho-RET Y1062), wildtype. Type of assay: cell-based. The note with it: HEK293, doxycycline-induced KIF5B-RET WT, 1 hr compound treatment; read-out: EC50, inhibition of intracellular autophosphorylation of RET at tyrosine 1062, wildtype cells. Here is the method: Compounds of formulas (I), (II), and (III) are screened for their ability to inhibit the intracellular autophosphorylation of RET at tyrosine 1062 as detected by In-Cell Western. HEK293 cells containing a doxycycline-inducible plasmid for inducible expression of KIF5B-RET WT and RET mutant forms V804M and G810S are seeded at 25,000 cells/well into black poly-D-lysine pre-coated 384-well plates (Corning, Catalog No. 356697). Expression of KIF5B-RET is induced with doxycycline at 1 μg/mL and cells are incubated at 37° C. overnight. Compounds are prepared in a threefold serial dilution in DMSO before further diluting 1:100 in media prior to the addition to the cells (0.1% final DMSO concentration). Compound treatment is performed for 1 hr at 37° C. followed by fixation of cells with 4% formaldehyde for 20 min at RT and cell permeabilisation with ice-cold MeOH for 10 min at RT. Cells are incubated with Intercept® blocking buffer (Li—COR, Catalogue No. 927-70010) for 1 hr at RT. Incubation with primary antibodies against human phospho-RET (Y1062) (R&D, Catalogue No. AF5009, 1/250 dilution) and human glyceraldehyde-3-phosphate dehydrogenase (clone 6C5, Merck, Catalog No. MAB374, 1/1000 dilution) are performed overnight at 4° C. Incubation with secondary antibodies IRDye® 800CW goat anti-rabbit IgG (Li—COR, Catalogue No. 926-32211, 1/1000 dilution) and IRDye® 680CW goat anti-mouse IgG (Li—COR, Catalogue No. 926-68070, 1/1000 dilution) are performed for 1 hr at RT. All antibody dilutions are done in Intercept® blocking buffer containing 0.05% Tween20. After washing cells with PBS-T (Cell Signaling technology, Catalogue No. 9809), the images are acquired on a Li—COR Odyssey LCx at 700 and 800 nm. Percent of DMSO control is calculated with 100% signal referring to control conditions containing no compound (0.4% DMSO only) and 0% signal represented by conditions containing control compound. The % of DMSO control values are fit to a 4 parameter logistic curve, and the determined EC50 value is defined as the estimated concentration of inhibitor at the inflexion point of the fitted curve.

The structures appear in SMILES notation.

By IC50 is commonly meant the concentration that gives 50% inhibition. As a reminder, the EC50 is the concentration giving half of the maximal effect. As to `CC(C(=O)Nc1cc(C(C)(C)C(F)(F)F)no1)c1ccc(-c2nn(C(C)C)c(N)c2C(N)=O)cc1` (single isomer, unassigned; isomer 1) [Example 17, 5-Amino-1-isopropyl-3-[4-(1-[[3-(1,1,1-trifluoro-2-methylpropan-2-yl)-1,2-oxazol-5-yl]carbamoyl]ethyl)phenyl]pyrazole-4-carboxamide, Isomer 1], the IC50 in assay [1] is < 0.1 µM. Also, the EC50 in assay [2] is < 0.1 µM.

Regarding `CC(C(=O)Nc1cc(C2(C)CC2)no1)c1ccc(-c2nn(C(C)C)c(N)c2C(N)=O)cc1` (single isomer, unassigned; isomer 1) [Example 35, 5-Amino-1-isopropyl-3-[4-(1-[[3-(1-methylcyclopropyl)-1,2-oxazol-5-yl]carbamoyl]ethyl)phenyl]pyrazole-4-carboxamide, Isomer 1], the IC50 in assay [1] is < 0.1 µM. For the same compound, in assay [2], the EC50 was < 0.1 µM.

Take `CC(C(=O)Nc1cc(CC(C)(C)C)no1)c1ccc(-c2nn(C(C)C)c(N)c2C(N)=O)cc1` (single isomer, unassigned; isomer 1) [Example 1, 5-Amino-3-[4-(1-[[3-(2,2-dimethylpropyl)-1,2-oxazol-5-yl]carbamoyl]ethyl)phenyl]-1-isopropylpyrazole-4-carboxamide, Isomer 1]: the IC50 in assay [1] is < 0.1 µM. In addition, in assay [2], the EC50 is < 0.1 µM.

In the case of `CCC(C)(C)c1cc(NC(=O)C(C)c2ccc(-c3nn(C(C)C)c(N)c3C(N)=O)cn2)on1` (single isomer, unassigned; isomer 2) [Example 84, 5-Amino-1-isopropyl-3-[6-[2-[[3-(1,1-dimethylpropyl)isoxazol-5-yl]amino]-1-methyl-2-oxo-ethyl]-3-pyridyl]pyrazole-4-carboxamide, Isomer 2], the IC50 in assay [1] is < 0.1 µM. For the same compound, the EC50 in assay [2] is < 0.1 µM.

Consider `CC(C(=O)Nc1cc(-c2ccc(Cl)cc2Cl)no1)c1ccc(-c2nn(C(C)C)c(N)c2C(N)=O)cc1` (single isomer, unassigned; isomer 1) [Example 45, 5-Amino-3-[4-(1-[[3-(2,4-dichlorophenyl)-1,2-oxazol-5-yl]carbamoyl]ethyl)phenyl]-1-isopropylpyrazole-4-carboxamide, Isomer 1], for which the IC50 in assay [1] was < 0.1 µM. Besides, the EC50 in assay [2] was < 0.1 µM.

Regarding `CC(C(=O)Nc1cc(C2CC(C)(C)C2)no1)c1ccc(-c2nn(C(C)C)c(N)c2C(N)=O)cc1` (single isomer, unassigned; isomer 1) [Example 98, 5-Amino-3-[4-[2-[[3-(3,3-dimethylcyclobutyl)isoxazol-5-yl]amino]-1-methyl-2-oxo-ethyl]phenyl]-1-isopropyl-pyrazole-4-carboxamide, Isomer 1], in assay [1], the IC50 is < 0.1 µM. Further, the concentration for a half-maximal effect (EC50) in assay [2] is < 0.1 µM.

`CCC(C)(C)c1cc(NC(=O)C(C)c2ccc(-c3nn(C(C)C)c(N)c3C(N)=O)cc2)on1` (single isomer, unassigned; isomer 1) [Example 15, 5-Amino-1-isopropyl-3-[4-(1-[[3-(2-methylbutan-2-yl)-1,2-oxazol-5-yl]carbamoyl]ethyl)phenyl]pyrazole-4-carboxamide, Isomer 1]: the IC50 in assay [1] is < 0.1 µM. Also, the EC50 in assay [2] was < 0.1 µM.

Consider `CCC(C)(C)c1cc(NC(=O)C(C)c2ccc(-c3nn(C(C)C)c(N)c3C(N)=O)nc2)no1` (single isomer, unassigned; isomer 2) [Example 66, 5-Amino-1-isopropyl-3-[5-(1-[[5-(2-methylbutan-2-yl)-1,2-oxazol-3-yl]carbamoyl]ethyl)pyridin-2-yl]pyrazole-4-carboxamide, Isomer 2], for which the IC50 in assay [1] is < 0.1 µM. In assay [2], the EC50 is < 0.1 µM.

Consider `CC(C(=O)Nc1cc(C(C)(C)C(C)(F)F)on1)c1ccc(-c2nn(C(C)C)c(N)c2C(N)=O)cc1` (single isomer, unassigned; isomer 2) [Example 76, 5-Amino-3-[4-(1-[[5-(3,3-difluoro-2-methylbutan-2-yl)-1,2-oxazol-3-yl]carbamoyl]ethyl)phenyl]-1-isopropylpyrazole-4-carboxamide, Isomer 2], for which the half-maximal inhibitory concentration (IC50) in assay [1] was < 0.1 µM. Further, the EC50 in assay [2] was < 0.1 µM.

For `CC(C(=O)Nc1cc(C(C)(C)C(F)(F)F)on1)c1ccc(-c2nn(C(C)C)c(N)c2C(N)=O)cc1` (single isomer, unassigned; isomer 1) [Example 81, 5-Amino-1-isopropyl-3-[4-(1-[[5-(1,1,1-trifluoro-2-methylpropan-2-yl)-1,2-oxazol-3-yl]carbamoyl]ethyl)phenyl]pyrazole-4-carboxamide, Isomer 1], the IC50 in assay [1] was < 0.1 µM. For the same compound, the 50% effective concentration (EC50) in assay [2] was < 0.1 µM.

For `CC(C(=O)Nc1cc(-c2ccc(Cl)cc2Cl)no1)c1ccc(-c2nn(C(C)C)c(N)c2C(N)=O)cn1` (single isomer, unassigned; isomer 2) [Example 94, 5-Amino-1-isopropyl-3-[6-[2-[[3-(2,4-dichlorophenyl)isoxazol-5-yl]amino]-1-methyl-2-oxo-ethyl]-3-pyridyl]pyrazole-4-carboxamide, Isomer 2], the concentration for half-maximal inhibition (IC50) in assay [1] was < 0.1 µM. Further, the EC50 in assay [2] is < 0.1 µM.

As for `CCC(C)(C)c1cc(NC(=O)C(C)c2ccc(-c3nn(C(C)C)c(N)c3C(N)=O)cc2)no1` (single isomer, unassigned; isomer 2) [Example 52, 5-Amino-1-isopropyl-3-[4-(1-[[5-(2-methylbutan-2-yl)-1,2-oxazol-3-yl]carbamoyl]ethyl)phenyl]pyrazole-4-carboxamide, Isomer 2], in assay [1], the IC50 was < 0.1 µM. Also, the EC50 in assay [2] was < 0.1 µM.
